One test has as its target PPARγ (Homo sapiens (Human), UniProt P37231). In words: Nuclear hormone receptor selectivity assay (GAL4-NHR-LBD luciferase reporter, HEK293). The format is cell-based. Here is the method: In the assay system used, an activated GAL4-nuclear hormone receptor (NHR) fusion construct binds to an upstream activation sequence (UAS) and drives a luciferase reporter gene. […]
HEK293 cells were transfected with GAL4-NHR-LBD construct (pcDNA3.1neo) and the pGL4.31 GAL4-luciferase reporter construct (Promega) and incubated overnight at 37° C. and 5% CO2. After 16-24 hours, cells were harvested and plated at 20 μL (10,000 cells)/well in tissue-culture treated 384 well plate. […] Next, plates are spun briefly and incubated overnight at 37° C. and 5% CO2. […] In agonist mode, test compound was incubated directly with the cells. For receptors that are not constitutively active, a known agonist is also tested as a positive control.
After 16-24 hours, luciferase activity was measured. Plates and luciferase reagent (e.g. One-Glo® or Dual Glo®; Promega, Madison, Wis.) were brought to room temperature. Next, a 25 μL aliquot of luciferase reagent was added to each well. Plates were spun down briefly and incubated at room temperature for 10 minutes. The luciferase signal was measured on an Envision plate reader (Perkin Elmer) set to the ultra-sensitive luminescence setting.

The test system of test [1] is murine collagen-induced arthritis model. In words: Murine collagen-induced arthritis model. Format: in vivo, DBA/1J mice. To be noted: oral 3, 10 or 30 mg/kg twice daily; FIG. 4. The protocol: Female DBA/1J mice (Jackson Laboratories, 7-8 weeks old) were received and allowed to acclimate for about one week. On the day of immunization, an emulsion was freshly prepared by homogenizing equal volumes of Complete Freund's Adjuvant (CFA, Chondrex #7001) and a collagen type-2 solution (bovine source, Chondrex #20022) using a tissue homogenizer, on ice. A volume of 0.1 mL of this emulsion was injected subcutaneously into the base of the tail of each mouse, which was lightly anesthetized with isoflurane. Mice recovered from anesthesia were allowed food and water ad libitum.
Eighteen days after immunization, the mice were injected intraperitoneally with 40 μg of lipopolysaccaride (LPS, Sigma # L4005) in 0.2 mL saline, in order to help synchronize the disease progression in all animals. Seven days after LPS injection, the mice were assessed for knee joint swelling by measurement of each knee joint using digital calipers and computing total joint circumference. The total knee joint circumference of the 4 knee joints was then used to randomize mice into treatment groups of equal average circumference.
This dosing continued twice daily at 8- and 16-hour intervals for the duration of the study. As a positive control, one group of mice received 25 mg/kg Jak inhibitor (JAKi) tofacitinib once per day. Joints were measured 2-3 times per week.

Chain of PPARγ (P37231 238-503, species assumed): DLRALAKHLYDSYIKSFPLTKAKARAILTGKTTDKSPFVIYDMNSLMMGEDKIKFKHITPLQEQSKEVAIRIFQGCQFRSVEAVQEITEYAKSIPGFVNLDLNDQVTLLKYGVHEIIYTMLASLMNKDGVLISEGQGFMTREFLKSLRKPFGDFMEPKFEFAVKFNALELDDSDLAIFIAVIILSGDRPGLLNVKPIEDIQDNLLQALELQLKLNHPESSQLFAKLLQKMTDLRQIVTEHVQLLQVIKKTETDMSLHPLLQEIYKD

For `O=C(O)[C@@H]1CC=C(c2nn(C(=O)c3c(Cl)cccc3C3(C(F)(F)F)CC3)c3c2CC[C@@H](C(=O)N2CCC4(COC4)C2)C3)CC1` [Test Compound], the “Agonist Mode, kind of agonism” value on PPARγ is given as “(partial agonist)”. Besides, in test [1], the total joint circumference result is listed as “dose-dependent decrease in total joint circumference”.

Values taken from patent publication US10689369B2, “Substituted indazole compounds as RORgammaT inhibitors and uses thereof” (Merck Sharp & Dohme Corp., priority 2015, dated 2020).
